Measured values as given in patent US9187518B2, “Antiangiogenic brassinosteroid compounds” (CONSEJO NACIONAL DE INVESTIGACIONES CIENTIFICAS Y TECNICAS …, priority 2011, dated 2015).

Key:
LMM3 cells = assay: In vivo neovascular response induced by LMM3 cells in BALB/c mice; details: intradermal, 5 days
Protocol: For the in vivo assay, 2×10^6 cells/mL were grown in 1 mL of complete medium in 6 wells plates. Compound 1 was incubated with LMM3 cells during 1 h and 6 hs. Also, a group of non-treated tumoral cells were grown and incubated. Then, all the cells from each group were washed with PBS, trypsinized and re-suspended in 0.9 ml of F12 medium without FBS.
Female BALB/c mice were randomized as follows:
• Sham N=4 • LMM3 N=4 • LMM3+Compound 1-1 hour treatment N=4 • LMM3+Compound 1-6 hours treatment N=4
Then, inoculation of 2×10^5 cells/0.1 mL was done intradermically in the mouse flanks. After 5 days the animals were sacrificed and photographs of the inoculation site were taken.
The vessels density was quantified in each animal and the results were analized by ANOVA followed by the Tukey test. Results were expressed as the median of vessels density (vessels/mm^2+/−ES).

TNF-α = TNF-α secretion in epithelial cells (ELISA); assay type: cell-based, human
[1] = test system: J774A.1 cells stimulated with LPS; assay: Microarray gene expression in J774A.1 cells stimulated with LPS; assay type: cell-based, mouse; details: J774A.1, 100 ng/ml LPS, 40 μM, 6 h
Protocol: HSV-1 infected cells and LPS stimulated cells were transcriptionally analyzed by using the whole human genome microarray and whole mouse genome microarray (Agilent Technologies, Santa Clara, Calif.), corresponding to 41,000 human or mice genes and transcripts.
RNA was extracted with chloroform/isopropanol and purified from Trizol.
cDNA synthesis, amplification and labeling of cRNA was performed, following the protocol of two colors of Agilent. Cyanine: 3-CTP and 5-CTP labeled cRNA was prepared from purified RNA (Two-Color Microarray-Based Gene Expression Analysis—Quick Amp Labeling, Agilent). Labeled cRNA was purified, quantified and the efficiency of labeling determined.
After that, we proceeded with the hybridization, washing, assembling of the chips and scanning. The scanner software (Feature extraction) performed the scan quality control. The fluorescence intensity data obtained for each chip were analyzed using GeneSpring XG11 and Multi Experiment Viewer (MeV) programs.
Labeled samples were placed in human and mouse hybridizing chips for HCLE and J774A.1 cells, respectively, during 17 h at 60° C. Successive washings were done with different washing, stabilization and drying solutions, and samples were scanned in the Agilent scanner G2565BA.
We used the commercial software Agilent Feature Extraction for quality control of the scan. The software converts the scanned images produced in quantitative data for further analysis. It calculates the errors associated with hybridization, washing and scanning and detects outliers. On the one hand, it performs an analysis of the image to locate the grid on the chip and in it, the spots for each gene, and on the other hand, it makes an analysis of data, to define and measure information (fluorescence intensity) of each spot, for the analysis of gene expression.
We identified differentially expressed genes with statistical significance. We used two programs, the XG11 and GeneSpring and the Multi Experiment Viewer (MeV).
For this purpose, epithelial infected and inflammatory cells were processed to obtain RNA samples. HCLE cells infected with HSV-1 (m.o.i.=1) and J774A.1 cells stimulated with LPS (100 ng/ml) were treated or not with 40 μM of Compound 1. To extract total RNA, cells were harvested with Trizol at 6 h p.i. and at 6 h post-LPS induction. Eight replicates were obtained from HSV-1 infected and LPS-stimulated cells (four ‘control’ each) and other eight, from infected and LPS-stimulated cells treated with Compound 1 (four ‘treated’ each).

IL-6 = IL-6 secretion in LPS-stimulated J774A.1 macrophages (ELISA); assay type: cell-based, murine; details: J774A.1 stimulated with 100 ng/ml LPS 8 h, 40 μM
Protocol: J774A.1 cells grown in 24-well plates were incubated at 37° C. with 100 ng/ml of LPS, in duplicate. After 8 h, supernatants were harvested and murine IL-6 was quantified by commercial ELISA sets (BD OptEIA™, Becton Dickinson, USA) according to manufacturer instructions.

HSV-1 [2] = assay: Murine model of HSV-1 corneal infection (herpetic stromal keratitis, HSK); assay type: in vivo, mice
IL-8 = IL-8 secretion in epithelial cells (ELISA); assay type: cell-based, human
HUVEC cells = assay: Capillary tube formation on a Matrigel; assay type: cell-based, human; details: for reduction of tube formation vs untreated control: not statistically significant
Protocol: The formation of capillary tube like structures by HUVEC cells was analyzed on 24-well cell culture plates coated with an extracellular membrane matrix (Matrigel; BD Biosciences).
Matrigel was thawed at 4° C. Using precooled plates and tips, 100 μl/well of Matrigel was distributed and allowed to gelify at 37° C. for at least 30 min. Cells were seeded on the polymerized Matrigel (5 to 8×10^4 cells/well). The plate was incubated at 37° C., and tube formation was observed under a optic inverted microscope. Digital pictures were taken at different times with a camera. Tubular structures were quantified by manual counting of low power fields (25×) and inhibition percentage was expressed using untreated wells as 100%.
The formation of capillary tube-like structures by HUVEC cells was analyzed on 24-well cell culture plates coated with an extracellular membrane matrix (Matrigel; BD Biosciences). Matrigel was thawed at 4° C. Using precooled plates and tips, 100 μl/well of Matrigel was distributed and allowed to gelify at 37° C. for at least 30 min. Cells were seeded on the polymerized Matrigel (5 to 8×10^4 cells/well) in absence and presence of concentrations of 20 μM and 40 μM of each compound. The plate was incubated at 37° C., and tube formation was observed under an optic inverted microscope. Compound 1 was used as positive control.

HSV-1 [3] = assay: Anti-HSV-1 activity (multiplication and viral spreading) in human conjunctival and corneal cells; assay type: cell-based, Herpes simplex virus type 1
human corneal cells = assay: Cytotoxicity assay, corneal cells; assay type: cell-based
Protocol: Cell viability was determined as previously reported. The absorbance of each well was measured on a Eurogenetics MPR-A 4i microplate reader using a test wavelength of 570 nm and a reference wavelength of 630 nm. Results were expressed as a percentage of absorbance of treated cells with respect to untreated ones. The CC50 was defined as the concentration of compound that caused 50% reduction in cell viability.

## CC[C@@H](C(C)C)[C@H](O)[C@@H](O)[C@@H](C)[C@H]1CC[C@H]2[C@@H]3CCC4=CC(=O)CC[C@]4(C)[C@H]3CC[C@]12C [Compound 1, (22S,23S)-22,23-dihydroxystigmast-4-en-3-one]
LMM3 cells; LMM3 cells pre-incubated with 0.025 μg/μl during 1 h
  angiogenic response induced by LMM3 cells (vessel density): significantly reduced
LMM3 cells; LMM3 cells pre-incubated with 0.025 μg/μl during 6 h
  angiogenic response induced by LMM3 cells (vessel density): significantly reduced
TNF-α; HSV-1 infected IOBA-NHC cells, 40 μM, 24 h
  TNF-α production: did not affect TNF-α production
TNF-α; uninfected treated cells, compound alone
  TNF-α release: did not induce TNF-α release by itself
[1]
  Dusp2 gene expression: restrained
  expression of ATF3 and TLR4: overexpressed
[1]; vs untreated control
  expression of IL-10 and Socs2: increased
[1]; vs untreated stimulated
  expression of genes for IL-12, IL-23 and CXCL10: overexpression
IL-6
  IL-6 level: 838 ± 4.2 pg/mL
HSV-1 [2]; HSV-1 infected mice
  antiviral activity in vivo: no antiviral activity in vivo
HSV-1 [2]; administered during the first 3 days after HSV-1 infection
  signs of keratitis: significantly restrained
HSV-1 [2]; murine model of HSV-1 corneal infection, in presence of replicative virus and after immune response triggered
  incidence and severity of HSK: significantly decreases
HSV-1 [2]; treated from day 1 p.i. onwards, and at onset of disease, 6 days p.i. (data not shown)
  incidence and severity of neovascularization in infected corneas: decreased
IL-8; HSV-1 infected HCLE cells, 40 μM, 24 h (untreated infected 142.9±0.5)
  IL-8 secretion: 163.6 ± 0.4 pg/mL
IL-8; HSV-1 infected IOBA-NHC cells, 40 μM, 24 h (untreated infected 252±7.8)
  IL-8 secretion: 471.8 ± 30 pg/mL
IL-8; uninfected HCLE cells, compound alone, vs basal level
  IL-8 secretion: considerably increased
IL-8; uninfected IOBA-NHC cells, compound alone, vs basal level
  IL-8 secretion: considerably increased
HUVEC cells; 2.5 μM, 24 h
  reduction of tube formation vs untreated control: 17.3%
HUVEC cells; 5 μM, 24 h
  reduction of tube formation vs untreated control: 25.9%
HUVEC cells; 10 μM, 24 h
  reduction of the tube-like network: 59.8%
HUVEC cells; 20 μM and 40 μM, comparative assay
  formation of capillary tube like structures: showed inhibitory activity
HUVEC cells; 20 μM, 24 h
  reduction of the tube-like network: 90.7%
HUVEC cells; 50 μM, 24 h
  inhibition of tube formation: complete inhibition
HUVEC cells; 100 μM, 24 h
  inhibition of tube formation: complete inhibition
HUVEC cells; Homo sapiens, HUVEC, 40 μM, 24 h
  inhibition at 40 µM: 93.9%
HSV-1 [3]; human conjunctival cells
  HSV-1 multiplication and viral spreading: prevents
  selectivity indices (SI): 13.2
HSV-1 [3]; human corneal cells
  HSV-1 multiplication and viral spreading: prevents
  selectivity indices (SI): 9.3
Human corneal cells
  cytotoxicity: no cytotoxicity
